Columns and labels:
Test in all cases: relative viability (nuclei count vs DMSO), 5 days (fraction); higher = more cells survive
[1] = compound: CC1=C(C(=O)N2C=CSC2=N1)CCN3CCC(=C(C4=CC=CC=C4)C5=CC=C(C=C5)F)CC3
Procedure, shortened: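 Only plates meeting two conditions passed: control CV below 25% and at least one doubling. Lung cancer cell lines, kept overnight at 37 °C in 1536-well plates, were pinned with five library-drug doses (not always all listed) √10 apart on vehicle-anchored plates and grown 5 days without medium change. A one-step fix, permeabilisation and Hoechst stain preceded 4× imaging and MetaXpress nuclear counting. Viability equals treated-well nuclei divided by vehicle-well nuclei, as the median over plates.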

[2] = compound: CC1=C(C(=O)N2C=CSC2=N1)CCN3CCC(=C(C4=CC=CC=C4)C5=CC=C(C=C5)F)CC3 + Cc1cc(Nc2cc(N3CCN(C)CC3)nc(Sc3ccc(NC(=O)C4CC4)cc3)n2)n[nH]1 [Tozasertib] (partner 0.1 µM)
Procedure, shortened: (§1)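 Lung cancer cell lines in 1536-well plates were dosed by pin tool the day after seeding, either with one drug alone or with a fixed anchor-drug dose plus five library-drug doses (not always all listed) in √10 steps. After 5 days, cells were fixed and their nuclei stained in one step (final 0.05% Triton X-100, 1% formaldehyde, 1 ug/ml Hoechst), then counted on 4× images. Relative viability is the nuclei count in treated wells divided by that in vehicle wells. Values are medians of duplicate plates.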

[3] = compound: CC1=C(C(=O)N2C=CSC2=N1)CCN3CCC(=C(C4=CC=CC=C4)C5=CC=C(C=C5)F)CC3 + NC(=O)Nc1cc(-c2cccc(F)c2)sc1C(=O)N[C@H]1CCCNC1 [AZD7762] (partner 0.2 µM)
Procedure, shortened: as §1

[4] = compound: CC1=C(C(=O)N2C=CSC2=N1)CCN3CCC(=C(C4=CC=CC=C4)C5=CC=C(C=C5)F)CC3 + CC(=O)Nc1cccc(-n2c(=O)n(C3CC3)c(=O)c3c(Nc4ccc(I)cc4F)n(C)c(=O)c(C)c32)c1 [Trametinib] (partner 0.02 µM)
Procedure, shortened: as §1

[5] = compound: CC1=C(C(=O)N2C=CSC2=N1)CCN3CCC(=C(C4=CC=CC=C4)C5=CC=C(C=C5)F)CC3 + Cc1nc(Nc2ncc(C(=O)Nc3c(C)cccc3Cl)s2)cc(N2CCN(CCO)CC2)n1 [Dasatinib] (partner 0.075 µM)
Procedure, shortened: as §1

[6] = compound: CC1=C(C(=O)N2C=CSC2=N1)CCN3CCC(=C(C4=CC=CC=C4)C5=CC=C(C=C5)F)CC3 + O=C(CCCCCCC(=O)Nc1ccccc1)NO [Vorinostat] (partner 1 µM)
Procedure, shortened: as §1

[7] = compound: CC1=C(C(=O)N2C=CSC2=N1)CCN3CCC(=C(C4=CC=CC=C4)C5=CC=C(C=C5)F)CC3 + CCNC(=O)c1noc(-c2cc(C(C)C)c(O)cc2O)c1-c1ccc(CN2CCOCC2)cc1 [Luminespib] (partner 0.01 µM)
Procedure, shortened: as §1

[8] = compound: CC1=C(C(=O)N2C=CSC2=N1)CCN3CCC(=C(C4=CC=CC=C4)C5=CC=C(C=C5)F)CC3 + Nc1nc2[nH]cc(CCc3ccc(C(=O)N[C@@H](CCC(=O)O)C(=O)O)cc3)c2c(=O)[nH]1 [Pemetrexed] (partner 0.2 µM)
Procedure, shortened: as §1

[9] = compound: CC1=C(C(=O)N2C=CSC2=N1)CCN3CCC(=C(C4=CC=CC=C4)C5=CC=C(C=C5)F)CC3 + COc1cccc2cc(-c3nc([C@H]4CC[C@H](C(=O)O)CC4)n4ncnc(N)c34)[nH]c12 [OSI-027] (partner 0.5 µM)
Procedure, shortened: as §1

[10] = compound: CC1=C(C(=O)N2C=CSC2=N1)CCN3CCC(=C(C4=CC=CC=C4)C5=CC=C(C=C5)F)CC3 + N=C(N)NC(=N)NCCc1ccccc1 [Phenformin] (partner 250 µM)
Procedure, shortened: as §1

[11] = compound: CC1=C(C(=O)N2C=CSC2=N1)CCN3CCC(=C(C4=CC=CC=C4)C5=CC=C(C=C5)F)CC3 + CC(=O)c1c(C)c2cnc(Nc3ccc(N4CCNCC4)cn3)nc2n(C2CCCC2)c1=O [Palbociclib] (partner 0.5 µM)
Procedure, shortened: as §1

[12] = compound: CC1=C(C(=O)N2C=CSC2=N1)CCN3CCC(=C(C4=CC=CC=C4)C5=CC=C(C=C5)F)CC3 + Nc1ncn([C@H]2C[C@H](O)[C@@H](CO)O2)c(=O)n1 [Decitabine] (partner 2 µM)
Procedure, shortened: as §1

[13] = compound: CC1=C(C(=O)N2C=CSC2=N1)CCN3CCC(=C(C4=CC=CC=C4)C5=CC=C(C=C5)F)CC3 + O=C(c1cc(Cc2n[nH]c(=O)c3ccccc23)ccc1F)N1CCN(C(=O)C2CC2)CC1 [Olaparib] (partner 8 µM)
Procedure, shortened: as §1

With NCI-H522 the relative viability ([1]; 0.08 µM) was 1.15, the relative viability ([1]; 0.253 µM) was 1.02 and the relative viability ([1]; 0.8 µM) was 0.834. For the same cell line, the relative viability ([1]; 2.53 µM) was 0.863, the relative viability ([1]; 8 µM) was 0.774 and the relative viability ([2]; first compound 0.08 µM) was 0.551. The relative viability ([2]; first compound 0.253 µM) was 0.92, the relative viability ([2]; first compound 0.8 µM) was 0.555 and the relative viability ([2]; first compound 2.53 µM) was 0.523. The relative viability ([2]; first compound 8 µM) was 0.583, the relative viability ([3]; first compound 0.08 µM) was 0.927 and the relative viability ([3]; first compound 0.253 µM) was 0.874. For the same cell line, the relative viability ([3]; first compound 0.8 µM) was 0.789, the relative viability ([3]; first compound 2.53 µM) was 0.721 and the relative viability ([3]; first compound 8 µM) was 0.747. It also gave a relative viability ([4]; first compound 0.08 µM) of 0.758, a relative viability ([4]; first compound 0.253 µM) of 0.74 and a relative viability ([4]; first compound 0.8 µM) of 0.7. It also gave a relative viability ([4]; first compound 2.53 µM) of 0.758, a relative viability ([4]; first compound 8 µM) of 0.778 and a relative viability ([5]; first compound 0.08 µM) of 0.901. It also gave a relative viability ([5]; first compound 0.253 µM) of 0.549, a relative viability ([5]; first compound 0.8 µM) of 0.998 and a relative viability ([5]; first compound 2.53 µM) of 0.855. The relative viability ([5]; first compound 8 µM) was 0.733, the relative viability ([6]; first compound 0.08 µM) was 0.69 and the relative viability ([6]; first compound 0.253 µM) was 0.86. The relative viability ([6]; first compound 0.8 µM) was 1.03, the relative viability ([6]; first compound 2.53 µM) was 1.08 and the relative viability ([6]; first compound 8 µM) was 0.736. The relative viability ([7]; first compound 0.08 µM) was 1.18, the relative viability ([7]; first compound 0.253 µM) was 1.16 and the relative viability ([7]; first compound 0.8 µM) was 1.21. It also gave a relative viability ([7]; first compound 2.53 µM) of 1.2, a relative viability ([7]; first compound 8 µM) of 0.897 and a relative viability ([8]; first compound 0.08 µM) of 0.958. It also gave a relative viability ([8]; first compound 0.253 µM) of 0.997, a relative viability ([8]; first compound 0.8 µM) of 0.964 and a relative viability ([8]; first compound 2.53 µM) of 0.914. For the same cell line, the relative viability ([8]; first compound 8 µM) was 0.764, the relative viability ([9]; first compound 0.08 µM) was 0.857 and the relative viability ([9]; first compound 0.253 µM) was 0.804. For the same cell line, the relative viability ([9]; first compound 0.8 µM) was 0.766, the relative viability ([9]; first compound 2.53 µM) was 0.633 and the relative viability ([9]; first compound 8 µM) was 0.811. It also gave a relative viability ([10]; first compound 0.08 µM) of 0.769, a relative viability ([10]; first compound 0.253 µM) of 0.627 and a relative viability ([10]; first compound 0.8 µM) of 0.677. It also gave a relative viability ([10]; first compound 2.53 µM) of 0.607, a relative viability ([10]; first compound 8 µM) of 0.566 and a relative viability ([11]; first compound 0.08 µM) of 1.08. For the same cell line, the relative viability ([11]; first compound 0.253 µM) was 1.09, the relative viability ([11]; first compound 0.8 µM) was 0.809 and the relative viability ([11]; first compound 2.53 µM) was 0.977. For the same cell line, the relative viability ([11]; first compound 8 µM) was 0.933, the relative viability ([12]; first compound 0.08 µM) was 0.729 and the relative viability ([12]; first compound 0.253 µM) was 0.629. It also gave a relative viability ([12]; first compound 0.8 µM) of 0.793, a relative viability ([12]; first compound 2.53 µM) of 0.592 and a relative viability ([12]; first compound 8 µM) of 0.686. For the same cell line, the relative viability ([13]; first compound 0.08 µM) was 0.622, the relative viability ([13]; first compound 0.253 µM) was 0.732 and the relative viability ([13]; first compound 0.8 µM) was 0.647. For the same cell line, the relative viability ([13]; first compound 2.53 µM) was 0.664 and the relative viability ([13]; first compound 8 µM) was 0.513.
